According to patent US20090215752A1, “Compounds, preparation and therapeutic use thereof” (priority 2005, published 2009):
Like-named read-outs stand apart in the source and are kept apart here.

Experiments:
PDE2 = target: T1, PDE2 (Homo sapiens, UniProt O00408); assay: Inhibition of PDE2 (radioenzymatic phosphodiesterase assay); type: biochemical; settings: 10 μM compound, 1 μM cyclic AMP
T1 construct: PDE2 was isolated from human platelets, provided by Etablissement Français du Sang-Alsace; tissue Etablissement Français du Sang-Alsace; host or cells: human platelets
T1 sequence (O00408 whole entry): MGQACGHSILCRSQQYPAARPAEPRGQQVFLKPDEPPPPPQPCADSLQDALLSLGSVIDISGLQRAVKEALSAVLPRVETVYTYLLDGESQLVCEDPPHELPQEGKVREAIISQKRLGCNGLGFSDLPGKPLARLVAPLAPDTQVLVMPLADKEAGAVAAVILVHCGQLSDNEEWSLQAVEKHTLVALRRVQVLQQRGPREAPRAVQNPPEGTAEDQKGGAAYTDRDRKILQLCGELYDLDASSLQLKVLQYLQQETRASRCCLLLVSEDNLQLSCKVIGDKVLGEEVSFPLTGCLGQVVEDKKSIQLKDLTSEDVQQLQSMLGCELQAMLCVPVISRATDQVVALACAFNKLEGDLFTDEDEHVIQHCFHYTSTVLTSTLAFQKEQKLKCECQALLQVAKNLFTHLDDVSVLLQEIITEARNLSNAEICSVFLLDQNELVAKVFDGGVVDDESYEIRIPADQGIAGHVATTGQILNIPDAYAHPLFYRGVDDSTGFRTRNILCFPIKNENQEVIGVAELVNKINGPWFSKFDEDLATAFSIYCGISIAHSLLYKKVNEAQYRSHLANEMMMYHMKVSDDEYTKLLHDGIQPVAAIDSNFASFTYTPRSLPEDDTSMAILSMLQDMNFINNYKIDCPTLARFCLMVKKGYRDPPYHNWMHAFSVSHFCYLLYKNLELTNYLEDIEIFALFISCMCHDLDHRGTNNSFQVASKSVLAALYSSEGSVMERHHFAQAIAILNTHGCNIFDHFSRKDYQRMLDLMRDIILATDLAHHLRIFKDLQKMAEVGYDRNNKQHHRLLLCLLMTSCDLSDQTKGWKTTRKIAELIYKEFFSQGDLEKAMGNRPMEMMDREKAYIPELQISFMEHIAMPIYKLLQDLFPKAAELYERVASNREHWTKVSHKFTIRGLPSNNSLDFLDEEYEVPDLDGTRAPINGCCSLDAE
Procedure: 2.1.1. Isolation of Phosphodiesterases from Smooth Muscle A 3 g segment of bovine aortic media cut into pieces with scissors was homogenized with an ultra-turrax then a potter glass/glass homogenizer in 7 volumes by weight of buffer A containing a protease inhibitor cocktail (20 mM Tris-HCl, 0.25 M saccharose, 2 mM magnesium acetate, 1 mM dithiothreitol, 5 mM EGTA, 2000 U/ml aprotinin, 10 mg/l leupeptin and 10 mg/l soya trypsic inhibitor). The homogenizate was centrifuged at 105,000 g for 1 hour. The supernatant was loaded on a DEAE-Sephacel column (15×1.6 cm) pre-equilibrated with buffer B (buffer A without the saccharose, EGTA and protease inhibitors). The column was washed until there was no detectable absorption at 280 nm, then eluted with a linear gradient of NaCl (0-0.5 M) in buffer B. 3-ml fractions were collected and enzyme activity was determined under the conditions described hereinbelow to localize the different enzymes PDE1, PDE3, PDE4 and PDE5 which were aliquoted and frozen at −80° C. (Lugnier et al., Biochem. Phamacol., 1986, 35: 1746-1751). PDE2 was isolated from human platelets, provided by Etablissement Français du Sang-Alsace, according to Kameni Tcheudji J F et al., (J. Mol. Biol. 2001; 310: 181-791), and stored until use at −80° C. in small aliquots.
Cyclic nucleotide phosphodiesterase activity was determined by a radioenzymatic method using tritium-labelled cyclic GMP or AMP (1 μM) as substrate (Lugnier et al., 1986). ^3H-labelled adenosine or guanosine monophosphate formed by hydrolysis of the radiolabelled cyclic nucleotide was then converted to ^3H-labelled adenosine or guanosine in a second reaction with […] in excess. The nucleoside formed was separated from the nucleotides by anion exchange chromatography. Nucleoside radioactivity was determined by liquid scintillation counting. Enzymatic incubations were carried out under conditions allowing no more than 15% hydrolysis of the substrate; each point was performed in duplicate.
The concentration of substance which inhibits enzymatic activity by 50% (IC50) at 1 μM cyclic AMP was calculated by nonlinear regression from the experimental values of hydrolysis rate (Prism, GraphPad).

σ receptors = assay: Isolated organ bioassay, field-stimulated vas deferens: test for agonist activity; design: species or system guinea pig
Procedure: Segments of guinea pig vas deferens were suspended in 20-ml organ baths containing an oxygenated (95% O2 and 5% CO2) and pre-warmed (37° C.) physiological salt solution of the following composition (in mM): NaCl 118.0, KCl 4.7, MgSO4 1.2, CaCl2 2.5, KH2PO4 1.2, NaHCO3 25.0 and glucose 11.0 (pH 7.4). Yohimbine (1 μM), (−) sulpiride (1 μM), atropine (1 μM) and naloxone (1 μM) were also present throughout the experiments to block the α2-adrenergic, dopamine D2, muscarinic and opioid receptors, respectively. The tissues were connected to force transducers for isometric tension recordings. They were stretched to a resting tension of 0.5 g, allowed to equilibrate for at least 30 min during which time they were washed repeatedly and the tension readjusted. Thereafter, they were stimulated electrically using a constant current stimulator.
The tissues were exposed to a submaximal concentration of the reference agonist (+) SKF-10047 (100 μM) to verify responsiveness and to obtain a control response. Following washings and recovery of the twitch contraction amplitude, the tissues were exposed to increasing concentrations of substance or the same agonist. The different concentrations were added cumulatively and each was left in contact with the tissues until a stable response was obtained or for a maximum of 15 min. If an agonist-like response (enhancement of twitch contractions) was obtained, the reference antagonist rimcazole (10 μM) was tested against the highest concentration of substance to confirm the involvement of the σ receptors in this response.
The parameter measured was the maximum change in the twitch contraction amplitude induced by each compound concentration. The results are expressed as a percent variation of the control twitch contraction amplitude (mean values). The effects of substance tested at 1.0 10^−6 M, 3.0 10^−6 M and 1.0 10^−5 M for agonist and antagonist activities at the σ receptors in the guinea pig vas deferens bioassay are summarized in Tables 6-7 where those of the reference compounds are also reported.

[1] = read-out: PDE2 percentage inhibition at 10 μM, Table 1
[2] = Table 1, read-out: PDE2 percentage inhibition at 10 μM

Row | Compound | inhibition at 10 µM (PDE2; [1]) [%] | other results
1 | COc1cc2c(c(OC)c1-c1ccccc1)C(c1cccc(C(N)=O)c1)=NCC(=O)N2Cc1ccc(C(F)(F)F)cc1 [Compound 25, 3-[6,8-Dimethoxy-2-oxo-7-phenyl-1-(4-trifluoromethyl-benzyl)-2,3-dihydro-1H-benzo[e][1,4]diazepin-5-yl]-benzamide] | 18 | –
2 | COc1cc2c(c(OC)c1-c1ccccc1)C(c1cccc(C#CCNC(=O)OC(C)(C)C)c1)=NCC(=O)N2C [Compound 30, {3-[3-(6,8-Dimethoxy-1-methyl-2-oxo-7-phenyl-2,3-dihydro-1-benzo[e][1,4]diazepin-5-yl)-phenyl]-prop-2-ynyl}-carbamic acid tert-butyl ester] | – | PDE2 percentage inhibition at 10 μM (PDE2; Table 1): 69%
3 | COc1cc2c(c(OC)c1-c1ccccc1)C(c1cccc(Br)c1)=NCC(=O)N2C [Compound 10, 5-(3-Bromo-phenyl)-6,8-dimethoxy-1-methyl-7-phenyl-1,3-dihydro-benzo[e][1,4]diazepin-2-one] | – | inhibition at 10 µM (PDE2; [2]): 86%
4 | COc1cc2c(c(OC)c1-c1ccccc1)C(c1cccc(C(N)=O)c1)=NCC(=O)N2CCCc1ccccc1 [Compound 26, 3-[6,8-Dimethoxy-2-oxo-7-phenyl-1-(3-Phenyl-propyl)-2,3-dihydro-1H-benzo[e][1,4]diazepin-5-yl]-benzamide] | 5 | –
5 | CCCN1C(=O)CN=C(c2cccc(C(N)=O)c2)c2c1cc(OC)c(-c1ccccc1)c2OC [Compound 22, 3-(6,8-Dimethoxy-2-oxo-7-phenyl-1-propyl-2,3-dihydro-1H-benzo[e][1,4]diazepin-5-yl)-benzamide] | 16 | –
6 | CCN1C(=O)CN=C(c2cccc(C#N)c2)c2c1cc(OC)c(-c1ccccc1)c2OC [Compound 11, 3-(6,8-Dimethoxy-2-oxo-7-phenyl-1-ethyl-2,3-dihydro-1H-benzo[e][1,4]diazepin-5-yl)-benzonitrile] | 10 | –
7 | COc1cc2c(c(OC)c1-c1ccccc1)C(c1ccccc1)=NCC(=O)N2 [Compound 3, 6,8-Dimethoxy-5,7-diphenyl-1,3-dihydro-benzo[e][1,4]diazepin-2-one] | – | inhibition at 10 µM (PDE2; [2]): 25%
8 | COc1cc2c(c(OC)c1-c1ccccc1)C(c1cccc(CCCN)c1)=NCC(=O)N2C [Compound 32, 5-[3-(3-Amino-propyl)-phenyl]-6,8-dimethoxy-1-methyl-7-phenyl-1,3-dihydro-benzo[e][1,4]diazepin-2-one] | 22 | –
9 | COc1cc2c(c(OC)c1-c1ccccc1)C(c1cccc(C#CCNC(=O)OC(C)(C)C)c1)=NCC(=O)N2C [Compound 28, {3-[3-(6,8-Dimethoxy-1-methyl-2-oxo-7-phenyl-2,3-dihydro-1H-benzo[e][1,4]diazepin-5-yl)-phenyl]-prop-2-ynyl}-carbamic acid tert-butyl ester] | 43 | –
10 | COc1cc2c(c(OC)c1-c1ccccc1)C(c1cccc(C(N)=O)c1)=NCC(=O)N2Cc1ccccc1 [Compound 24, 3-(1-Benzyl-6,8-dimethoxy-2-oxo-7-phenyl-2,3-dihydro-1H-benzo[e][1,4]diazepin-5-yl)-benzamide] | 18 | –
11 | (+)SKF-10,047 | – | Response to the compound, variation of twitch contraction amplitude (σ receptors; 1.0 10^−4 M, mean, n=2): +158%; Response to the compound, variation of twitch contraction amplitude (σ receptors; 1.0 10^−5 M, mean, n=2): +40%; Response to the compound, variation of twitch contraction amplitude (σ receptors; 3.0 10^−5 M, mean, n=2): +90%; Effect on twitch contraction amplitude (in words) (σ receptors; field-stimulated guinea pig vas deferens): concentration-dependent enhancement of the twitch contraction amplitude; Response to the highest concentration of the compound +Rimcazole (1.0 10^−5 M) (σ receptors; highest compound concentration plus rimcazole 1.0 10^−5 M, mean, n=2): −8%
12 | COc1cc2c(c(OC)c1-c1ccccc1)C(c1cccc(C#N)c1)=NCC(=O)N2Cc1ccccc1 [Compound 14, 3-(1-Benzyl-6,8-dimethoxy-2-oxo-7-phenyl-2,3-dihydro-1H-benzo[e][1,4]diazepin-5-yl)-benzonitrile] | 9 | –
13 | CCN1C(=O)CN=C(c2cccc(C(N)=O)c2)c2c1cc(OC)c(-c1ccccc1)c2OC [Compound 21, 3-(6,8-Dimethoxy-2-oxo-7-phenyl-1-ethyl-2,3-dihydro-1H-benzo[e][1,4]diazepin-5-yl)-benzamide] | 31 | –
14 | COc1cc2c(c(OC)c1-c1ccccc1)C(c1cccc(C(N)=O)c1)=NCC(=O)N2CC1CC1 [Compound 23, 3-(1-Cyclopropylmethyl-6,8-dimethoxy-2-oxo-7-phenyl-2,3-dihydro-1H-benzo[e][1,4]diazepin-5-yl)-benzamide] | 15 | –
15 | COc1cc2c(c(OC)c1-c1ccccc1)C(c1cccc(C#N)c1)=NCC(=O)N2Cc1ccc(C(F)(F)F)cc1 [Compound 15, 3-[6,8-Dimethoxy-2-oxo-7-phenyl-1-(4-trifluoromethyl-benzyl)-2,3-dihydro-1H-benzo[e][1,4]diazepin-5-yl]-benzonitrile] | 9 | –
16 | COc1cc2c(c(OC)c1-c1cccnc1)C(c1cccc(C#N)c1)=NCC(=O)N2 [Compound 4] | – | PDE2 percentage inhibition at 10 μM (PDE2; Table 1): 4%
17 | COCC#Cc1cccc(C2=NCC(=O)N(C)c3cc(OC)c(-c4ccccc4)c(OC)c32)c1 [Compound 27, 6,8-Dimethoxy-5-[3-(3-methoxy-prop-1-ynyl)-phenyl]-1-methyl-7-phenyl-1,3-dihydro-benzo[e][1,4]diazepin-2-one] | 83 | –
18 | COc1cc2c(c(OC)c1-c1ccccc1)C(c1cccc(C#N)c1)=NCC(=O)N2CCCc1ccccc1 [Compound 16, 3-[6,8-Dimethoxy-2-oxo-7-phenyl-1-(3-phenyl-propyl)-2,3-dihydro-1H-benzo[e][1,4]diazepin-5-yl]-benzonitrile] | 18 | –
19 | COc1cc2c(c(OC)c1-c1ccccc1)C(c1cccc(C#CCN)c1)=NCC(=O)N2C [Compound 31, 5-[3-(3-Amino-prop-1-ynyl)-phenyl]6,8-dimethoxy-1-methyl-7-phenyl-1,3-dihydro-benzo[e][1,4]diazepin-2-one] | 42 | –
20 | COc1cc2c(c(OC)c1-c1ccccc1)C(c1cccc(C#N)c1)=NCC(=O)N2CC1CC1 [Compound 13, 3-(1-Cyclopropylmethyl-6,8-dimethoxy-2-oxo-7-phenyl-2,3-dihydro-1H-benzo[e][1,4]diazepin-5-yl)-benzonitrile] | 20 | –
21 | COc1cc2c(c(OC)c1-c1cccnc1)C(c1cccc(C(N)=O)c1)=NCC(=O)N2 [Compound 19, 3-(6,8-Dimethoxy-2-oxo-7-pyridin-3-yl-2,3-dihydro-1H-benzo[e][1,4]diazepin-5-yl)-benzamide] | – | PDE2 percentage inhibition at 10 μM (PDE2; Table 1): 27%
22 | CCCN1C(=O)CN=C(c2cccc(C#N)c2)c2c1cc(OC)c(-c1ccccc1)c2OC [Compound 12, 3-(6,8-Dimethoxy-2-oxo-7-phenyl-1-propyl-2,3-dihydro-1H-benzo[e][1,4]diazepin-5-yl)-benzonitrile] | 17 | –
